A short description of experiment [1]: cells.
Experiment [2] in a line: HEp-2 cell cytotoxicity, dose response, cytotoxicity control for RSV inhibitor project, HTS (AID 2410). The format is functional. To be noted: human respiratory syncytial virus.
Experiment [3] deals with Lytic switch protein BZLF1 (Epstein-Barr virus (strain B95-8) (HHV-4) (Human herpesvirus 4), UniProt P03206). As to the kind of experiment: EBV ZTA inhibitors, dose response, counter-screen for EBNA-1 inhibitor project, biochemical, fluorescence polarization, Epstein-Barr virus, 1536-well (AID 2377).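 Note: fluorescence polarization of Cy5-labelled ZRE DNA probe bound by purified Zta.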 Further details: species or system human gammaherpesvirus 4.
Experiment [4] has as its target Epstein-Barr nuclear antigen 1 (Epstein-Barr virus (strain B95-8) (HHV-4) (Human herpesvirus 4), UniProt P03211). As to the kind of experiment: EBNA-1 inhibitors, dose response, biochemical, fluorescence polarization, 1536-well (AID 2381).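 Note: fluorescence polarization of a Cy5 DNA probe bound by EBNA-1 protein.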 Further details: species or system human gammaherpesvirus 4.
Experiment [5] deals with T1, SUMO-activating enzyme (Homo sapiens, UniProt Q9UBT2). In words: SUMOylation inhibitor hit validation, confirmation, SUMOylation inhibitor project, biochemical, AlphaScreen (AID 2018). Format: functional.
T1 sequence (Q9UBE0 whole entry): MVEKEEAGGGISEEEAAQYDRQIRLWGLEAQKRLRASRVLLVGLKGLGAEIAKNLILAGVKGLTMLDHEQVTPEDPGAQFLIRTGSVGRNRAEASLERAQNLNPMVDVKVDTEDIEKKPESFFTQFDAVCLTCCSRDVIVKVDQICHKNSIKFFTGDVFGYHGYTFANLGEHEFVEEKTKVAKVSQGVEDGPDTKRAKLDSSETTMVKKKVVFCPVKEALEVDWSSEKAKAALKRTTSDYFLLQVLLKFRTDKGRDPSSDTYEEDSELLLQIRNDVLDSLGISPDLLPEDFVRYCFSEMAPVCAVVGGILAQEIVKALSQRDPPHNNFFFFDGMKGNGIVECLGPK
T1 sequence (Q9UBT2 whole entry): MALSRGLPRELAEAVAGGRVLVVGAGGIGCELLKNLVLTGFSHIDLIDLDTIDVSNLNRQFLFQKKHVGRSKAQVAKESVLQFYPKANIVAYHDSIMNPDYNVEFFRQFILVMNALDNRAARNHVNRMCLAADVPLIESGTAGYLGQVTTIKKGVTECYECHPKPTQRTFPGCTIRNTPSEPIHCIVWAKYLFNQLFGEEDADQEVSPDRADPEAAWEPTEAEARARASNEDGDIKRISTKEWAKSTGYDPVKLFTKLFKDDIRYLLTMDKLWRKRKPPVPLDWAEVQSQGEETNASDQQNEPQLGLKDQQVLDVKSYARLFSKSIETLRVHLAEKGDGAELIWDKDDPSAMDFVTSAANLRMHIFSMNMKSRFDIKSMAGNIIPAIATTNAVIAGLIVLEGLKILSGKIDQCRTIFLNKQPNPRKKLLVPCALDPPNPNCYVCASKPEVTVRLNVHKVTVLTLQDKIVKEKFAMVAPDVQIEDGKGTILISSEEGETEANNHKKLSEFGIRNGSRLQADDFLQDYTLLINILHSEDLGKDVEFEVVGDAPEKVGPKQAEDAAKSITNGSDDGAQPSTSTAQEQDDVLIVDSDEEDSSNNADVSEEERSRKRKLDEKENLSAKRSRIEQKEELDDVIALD
Experiment [6] deals with T1, SUMO-activating enzyme. In words: inhibitors of in vitro SUMOylation cascade, primary screen, biochemical, HTRF, uHTS (AID 2006). Format: protein-complex assay. In general terms: TR-FRET usually uses a lanthanide donor and a delayed reading to cut background.
Experiment [7] has as its target T2, Streptokinase A (Streptococcus pyogenes serotype M1, UniProt P10520).
T2 sequence (P10520 whole entry): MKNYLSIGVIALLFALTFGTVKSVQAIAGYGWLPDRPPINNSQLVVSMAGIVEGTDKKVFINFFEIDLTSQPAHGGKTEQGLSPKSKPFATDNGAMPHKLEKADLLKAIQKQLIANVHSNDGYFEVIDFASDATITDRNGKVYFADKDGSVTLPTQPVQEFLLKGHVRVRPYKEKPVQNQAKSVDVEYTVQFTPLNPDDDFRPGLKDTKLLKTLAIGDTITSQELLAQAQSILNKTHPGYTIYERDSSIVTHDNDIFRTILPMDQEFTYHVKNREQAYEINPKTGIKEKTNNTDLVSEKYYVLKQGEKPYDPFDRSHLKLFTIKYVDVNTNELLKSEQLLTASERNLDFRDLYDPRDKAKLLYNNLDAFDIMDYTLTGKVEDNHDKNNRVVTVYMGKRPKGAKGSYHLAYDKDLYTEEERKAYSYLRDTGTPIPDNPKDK
As to the kind of experiment: Absorbance Microorganism-Based Dose Response Follow up to Identify Inhibitors of Streptokinase Expression. [Related pubchem assays: 1677 (Project Summary), 1915, 1914, 1902 (Retest at Dose), 1900 (Counter Screen), 1662 (Primary HTS)]. The format is functional, Streptococcus pyogenes M1 GAS. A general note: Counterscreens check selectivity or assay interference.

The test system of experiment [8] is Streptococcus. As to the kind of experiment: Streptococcus pyogenes growth inhibition counter-screen, dose response, counter-screen for streptokinase expression inhibitor project, luminescence, BacTiter-Glo, strain UMAA2166 (AID 2477). Format: functional, organism-based.
The target of experiment [9] is T3, Bcl-2-like protein 10 (Homo sapiens, UniProt Q9HD36).
T3 sequence (Q9HD36 whole entry): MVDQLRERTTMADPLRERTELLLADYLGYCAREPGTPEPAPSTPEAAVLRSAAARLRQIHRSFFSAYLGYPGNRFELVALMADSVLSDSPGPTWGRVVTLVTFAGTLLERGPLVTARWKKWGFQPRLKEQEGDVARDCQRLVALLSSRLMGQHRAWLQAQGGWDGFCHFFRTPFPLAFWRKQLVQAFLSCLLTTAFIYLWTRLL
As to the kind of experiment: Biochemical TR3 FP assay of Bcl-B inhibitor potency, EC50 (AID 1243). The format is functional.

Experiment [10] deals with Induced myeloid leukemia cell differentiation protein Mcl-1 (Homo sapiens, UniProt Q07820). As to the kind of experiment: MCL1-BIM BH3 interaction inhibitors, dose response, biochemical, fluorescence polarization, BIM-BH3 peptide, 1536-well (AID 2217). A general note: Fluorescence polarisation rises when a labelled molecule tumbles more slowly, as on binding a larger partner.
Chain of Induced myeloid leukemia cell differentiation protein Mcl-1 (Q07820 whole entry): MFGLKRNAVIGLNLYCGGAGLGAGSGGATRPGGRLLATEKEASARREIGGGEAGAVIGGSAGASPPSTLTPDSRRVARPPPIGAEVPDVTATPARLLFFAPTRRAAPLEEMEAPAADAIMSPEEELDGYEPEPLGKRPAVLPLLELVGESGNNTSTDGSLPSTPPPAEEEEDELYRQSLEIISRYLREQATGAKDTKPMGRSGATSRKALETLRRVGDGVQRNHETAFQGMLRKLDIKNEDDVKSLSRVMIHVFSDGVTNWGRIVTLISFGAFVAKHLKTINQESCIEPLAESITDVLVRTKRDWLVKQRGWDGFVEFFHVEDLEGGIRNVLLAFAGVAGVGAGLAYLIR

For experiment [11], the target named is Bcl-2-like protein 1 (Homo sapiens, UniProt Q07817). As to the kind of experiment: BCL-XL inhibitors, dose response, selectivity assay for MCL1 inhibitor project, biochemical, fluorescence polarization, 1536-well (AID 2218).
Chain of Bcl-2-like protein 1 (Q07817 whole entry): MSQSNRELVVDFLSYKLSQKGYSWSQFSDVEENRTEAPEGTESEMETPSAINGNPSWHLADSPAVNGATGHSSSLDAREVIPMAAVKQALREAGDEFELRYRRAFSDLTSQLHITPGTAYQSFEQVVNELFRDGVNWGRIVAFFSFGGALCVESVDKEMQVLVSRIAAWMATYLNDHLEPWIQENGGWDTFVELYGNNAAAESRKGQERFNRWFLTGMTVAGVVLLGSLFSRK
The target in experiment [12] is Genome polyprotein (dengue virus type 2, UniProt P29990). As to the kind of experiment: Dengue-2 NS5 methyltransferase inhibitors, primary screen, biochemical, confirmation dose response (AID 588689). The format is functional.
The target in experiment [13] is T4, Caspase-6 (Homo sapiens, UniProt P55212).
T4 sequence (P55212 whole entry): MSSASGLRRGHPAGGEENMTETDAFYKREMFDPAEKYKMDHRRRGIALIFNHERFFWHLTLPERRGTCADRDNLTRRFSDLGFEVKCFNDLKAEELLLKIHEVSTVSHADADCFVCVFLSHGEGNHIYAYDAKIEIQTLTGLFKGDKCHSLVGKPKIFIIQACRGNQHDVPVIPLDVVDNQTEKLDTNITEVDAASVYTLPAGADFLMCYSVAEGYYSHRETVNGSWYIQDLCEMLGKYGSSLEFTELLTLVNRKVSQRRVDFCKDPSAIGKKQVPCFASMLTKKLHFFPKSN
In words: human caspase-6 inhibitors, dose response, biochemical, VEID-R110 fluorescence, cherry-pick (AID 720632).

In experiment [14] the target is 26S proteasome non-ATPase regulatory subunit 14 (Homo sapiens, UniProt O00487). As to the kind of experiment: inhibition of proteasome subunit RPN11 – biochemical, fluorescence polarization, uHTS hits, confirmation (AID 602368). Format: functional.
Chain of 26S proteasome non-ATPase regulatory subunit 14 (O00487 whole entry): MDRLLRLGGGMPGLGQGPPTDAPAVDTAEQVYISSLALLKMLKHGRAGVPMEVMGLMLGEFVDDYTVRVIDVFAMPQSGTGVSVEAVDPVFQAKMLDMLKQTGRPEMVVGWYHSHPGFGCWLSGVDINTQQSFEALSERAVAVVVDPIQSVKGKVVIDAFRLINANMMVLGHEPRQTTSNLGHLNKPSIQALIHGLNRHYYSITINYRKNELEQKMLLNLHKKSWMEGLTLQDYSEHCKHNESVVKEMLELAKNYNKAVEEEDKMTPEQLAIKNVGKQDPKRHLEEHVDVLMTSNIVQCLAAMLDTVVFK
Experiment [15] in a line: enhancers of respiration in Yfh1-depleted yeast, dose response, Friedreich's ataxia, plus single-dose screen (AID 1465).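 Note: yeast depleted of Yfh1p frataxin homolog grown on glycerol needing respiration; WST-1 tetrazolium dye reduction as measure of cellular dehydrogenase metabolic activity.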 Format: functional.
Experiment [16] has as its target Prothrombin (Bos taurus, UniProt P00735). As to the kind of experiment: thrombin inhibition, dose response, biochemical, fluorescence polarization, uHTS hits (AID 602369). The format is functional.
The target of experiment [17] is 72 kDa type IV collagenase (Homo sapiens, UniProt P08253). As to the kind of experiment: Dose Response validation of uHTS RPN11 inhibitor hits using a MMP-2 Fluorescence assay. The format is functional.
Experiment [18] deals with FAD-linked sulfhydryl oxidase ALR (Homo sapiens, UniProt P55789). In words: inhibitors of human ALR sulfhydryl oxidase, dose response, biochemical, H2O2 detection, luminescence, cherry-pick (AID 493248).
Chain of FAD-linked sulfhydryl oxidase ALR (P55789 whole entry): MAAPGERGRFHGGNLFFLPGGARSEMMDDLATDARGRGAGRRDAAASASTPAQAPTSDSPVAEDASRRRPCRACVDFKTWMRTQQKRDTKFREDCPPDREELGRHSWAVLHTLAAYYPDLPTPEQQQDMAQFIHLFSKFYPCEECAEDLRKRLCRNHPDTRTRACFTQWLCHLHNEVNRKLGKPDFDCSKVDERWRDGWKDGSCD
Experiment [19] addresses T5, Aminopeptidase N (Plasmodium falciparum FcB1/Columbia, UniProt O96935).
T5 sequence (O96935 whole entry): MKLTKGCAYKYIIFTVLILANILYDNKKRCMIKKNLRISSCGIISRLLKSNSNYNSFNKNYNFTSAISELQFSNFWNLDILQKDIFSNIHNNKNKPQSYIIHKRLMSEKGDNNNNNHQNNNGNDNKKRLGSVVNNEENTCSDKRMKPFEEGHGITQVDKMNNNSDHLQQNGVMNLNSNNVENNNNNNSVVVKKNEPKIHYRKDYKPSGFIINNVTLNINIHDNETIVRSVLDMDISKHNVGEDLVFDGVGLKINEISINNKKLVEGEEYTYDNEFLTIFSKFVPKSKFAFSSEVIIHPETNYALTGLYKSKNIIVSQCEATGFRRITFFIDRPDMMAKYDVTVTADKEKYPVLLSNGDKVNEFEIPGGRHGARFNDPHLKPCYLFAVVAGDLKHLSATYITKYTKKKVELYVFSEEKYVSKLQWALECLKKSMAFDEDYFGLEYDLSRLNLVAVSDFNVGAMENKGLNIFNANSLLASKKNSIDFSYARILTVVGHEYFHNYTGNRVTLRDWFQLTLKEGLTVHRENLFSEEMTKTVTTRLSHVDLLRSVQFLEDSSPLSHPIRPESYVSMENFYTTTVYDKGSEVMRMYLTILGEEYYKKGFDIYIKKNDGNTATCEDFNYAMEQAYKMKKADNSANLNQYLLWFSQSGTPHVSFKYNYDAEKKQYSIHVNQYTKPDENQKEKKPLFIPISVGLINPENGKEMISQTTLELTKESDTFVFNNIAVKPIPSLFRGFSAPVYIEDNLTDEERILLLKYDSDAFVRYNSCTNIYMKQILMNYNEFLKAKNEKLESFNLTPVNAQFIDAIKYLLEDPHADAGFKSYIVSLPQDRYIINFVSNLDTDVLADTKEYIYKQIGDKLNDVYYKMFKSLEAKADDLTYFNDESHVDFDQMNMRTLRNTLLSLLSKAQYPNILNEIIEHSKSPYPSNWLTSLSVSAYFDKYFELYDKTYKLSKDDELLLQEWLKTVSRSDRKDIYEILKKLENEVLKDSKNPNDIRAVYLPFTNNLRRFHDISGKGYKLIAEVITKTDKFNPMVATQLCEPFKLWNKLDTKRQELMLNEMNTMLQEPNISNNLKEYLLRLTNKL
As to the kind of experiment: P. falciparum M1AAP inhibitors, biochemical, fluorogenic H-Leu-NHMec substrate, 1536-well (AID 1445). Set-up: species or system Plasmodium falciparum 3D7, 3D7.

In experiment [20] the target is Ion channel NompC (Danio rerio, UniProt Q7T1G6). As to the kind of experiment: Fluorescence counterscreen assay for TRPML3 agonists: dose response cell-based high-throughput screening assay to identify agonists of the transient receptor potential channel N1 (TRPN1). [Related pubchem assays: 1526, 1424, 1448 ]. Format: functional.
Chain of Ion channel NompC (Q7T1G6 whole entry): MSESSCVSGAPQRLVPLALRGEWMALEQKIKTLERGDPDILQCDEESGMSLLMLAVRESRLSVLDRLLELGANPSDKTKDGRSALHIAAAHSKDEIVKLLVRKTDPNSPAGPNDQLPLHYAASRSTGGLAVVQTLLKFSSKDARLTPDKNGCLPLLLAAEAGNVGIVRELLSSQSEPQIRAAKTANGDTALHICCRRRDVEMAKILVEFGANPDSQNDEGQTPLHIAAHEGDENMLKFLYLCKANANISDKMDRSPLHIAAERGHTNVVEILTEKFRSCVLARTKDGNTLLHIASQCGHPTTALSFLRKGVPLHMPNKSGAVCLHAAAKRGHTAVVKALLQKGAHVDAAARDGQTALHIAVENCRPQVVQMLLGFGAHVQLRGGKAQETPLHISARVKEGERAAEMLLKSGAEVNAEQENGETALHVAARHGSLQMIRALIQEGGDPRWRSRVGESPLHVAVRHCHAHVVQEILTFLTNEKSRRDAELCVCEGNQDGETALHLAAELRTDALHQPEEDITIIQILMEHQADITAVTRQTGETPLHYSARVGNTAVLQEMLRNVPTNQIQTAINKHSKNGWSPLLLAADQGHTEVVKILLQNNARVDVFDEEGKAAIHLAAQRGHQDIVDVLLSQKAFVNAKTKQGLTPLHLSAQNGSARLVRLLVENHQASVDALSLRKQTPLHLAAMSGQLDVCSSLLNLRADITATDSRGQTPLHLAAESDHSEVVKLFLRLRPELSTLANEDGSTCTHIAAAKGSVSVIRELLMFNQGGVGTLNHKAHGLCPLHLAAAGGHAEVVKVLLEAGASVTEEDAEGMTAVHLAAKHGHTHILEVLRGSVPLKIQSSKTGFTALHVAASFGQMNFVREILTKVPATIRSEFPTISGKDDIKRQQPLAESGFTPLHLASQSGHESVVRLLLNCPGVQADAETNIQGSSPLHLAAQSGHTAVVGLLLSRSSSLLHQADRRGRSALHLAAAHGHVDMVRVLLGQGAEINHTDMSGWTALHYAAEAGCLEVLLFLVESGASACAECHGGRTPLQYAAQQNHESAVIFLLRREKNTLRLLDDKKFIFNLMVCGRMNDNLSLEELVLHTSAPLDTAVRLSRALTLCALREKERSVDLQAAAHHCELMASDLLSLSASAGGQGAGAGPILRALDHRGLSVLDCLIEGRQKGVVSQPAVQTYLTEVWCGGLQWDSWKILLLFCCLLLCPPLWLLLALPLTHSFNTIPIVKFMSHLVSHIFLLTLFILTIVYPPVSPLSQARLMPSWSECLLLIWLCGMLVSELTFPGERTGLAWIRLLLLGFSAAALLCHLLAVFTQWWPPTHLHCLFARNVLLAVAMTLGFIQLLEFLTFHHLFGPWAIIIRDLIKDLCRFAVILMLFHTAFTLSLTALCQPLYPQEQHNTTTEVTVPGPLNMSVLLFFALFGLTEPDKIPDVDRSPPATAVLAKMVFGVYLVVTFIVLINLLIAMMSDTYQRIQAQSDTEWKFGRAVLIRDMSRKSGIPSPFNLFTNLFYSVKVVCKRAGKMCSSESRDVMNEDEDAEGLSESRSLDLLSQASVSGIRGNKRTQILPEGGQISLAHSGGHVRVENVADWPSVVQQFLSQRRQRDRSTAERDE
The target of experiment [21] is Mucolipin-3 (Homo sapiens, UniProt Q8TDD5). In words: Dose response cell-based high-throughput screening assay for agonists of the transient receptor potential channel ML3 (TRPML3). [Related pubchem assays: 1526, 1424, 1448 ]. The format is functional.
Chain of Mucolipin-3 (Q8TDD5 whole entry): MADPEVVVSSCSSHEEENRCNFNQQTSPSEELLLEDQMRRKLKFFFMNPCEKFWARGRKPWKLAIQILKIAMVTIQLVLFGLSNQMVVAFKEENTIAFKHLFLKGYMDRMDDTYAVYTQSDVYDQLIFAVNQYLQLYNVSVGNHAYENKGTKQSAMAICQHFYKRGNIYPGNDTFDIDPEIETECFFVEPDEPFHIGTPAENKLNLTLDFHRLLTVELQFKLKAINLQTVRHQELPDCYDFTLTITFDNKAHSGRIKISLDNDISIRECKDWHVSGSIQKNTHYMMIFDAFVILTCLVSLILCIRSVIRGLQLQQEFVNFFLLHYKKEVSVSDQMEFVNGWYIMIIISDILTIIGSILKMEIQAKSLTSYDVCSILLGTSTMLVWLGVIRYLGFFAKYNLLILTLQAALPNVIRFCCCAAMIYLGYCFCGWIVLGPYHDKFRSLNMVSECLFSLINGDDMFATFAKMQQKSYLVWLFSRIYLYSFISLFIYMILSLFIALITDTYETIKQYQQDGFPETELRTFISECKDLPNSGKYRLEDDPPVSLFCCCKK

Active and inactive are the calls of the source.

The term IC50 denotes the concentration needed to halve the response being measured. As usually defined, the CC50 is the concentration giving 50% cytotoxicity. Broadly, the EC50 is the midpoint of the concentration-response curve. By AC50 is commonly meant the concentration giving half of the maximal activity seen.

Chain of Epstein-Barr nuclear antigen 1 (P03211 whole entry): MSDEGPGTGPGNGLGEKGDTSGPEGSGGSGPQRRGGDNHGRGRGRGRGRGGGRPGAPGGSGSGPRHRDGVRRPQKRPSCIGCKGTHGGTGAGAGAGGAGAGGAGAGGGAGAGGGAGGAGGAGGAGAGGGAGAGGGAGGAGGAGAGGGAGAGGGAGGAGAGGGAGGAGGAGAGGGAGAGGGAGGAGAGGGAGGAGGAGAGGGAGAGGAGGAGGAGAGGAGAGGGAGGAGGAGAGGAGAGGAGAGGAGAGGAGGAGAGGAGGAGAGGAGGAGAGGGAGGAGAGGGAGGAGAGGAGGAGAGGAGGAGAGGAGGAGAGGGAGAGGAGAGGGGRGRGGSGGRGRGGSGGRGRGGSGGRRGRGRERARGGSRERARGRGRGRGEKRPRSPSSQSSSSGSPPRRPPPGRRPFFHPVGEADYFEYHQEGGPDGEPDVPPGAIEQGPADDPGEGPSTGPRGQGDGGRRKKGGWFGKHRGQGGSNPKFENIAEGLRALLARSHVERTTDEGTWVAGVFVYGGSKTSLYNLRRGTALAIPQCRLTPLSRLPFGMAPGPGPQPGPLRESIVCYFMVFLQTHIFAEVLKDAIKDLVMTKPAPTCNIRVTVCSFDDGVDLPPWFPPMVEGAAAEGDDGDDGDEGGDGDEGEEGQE

`CCn1nc(C)c(CN2CCCC(CO)(Cc3ccccc3)C2)c1C` (stereo unspecified): the IC50 in experiment [1] was 42.9 µM (active). In addition, in experiment [2], the CC50 was > 50 µM (active).
For the compound `COc1ccccc1C(=O)Nc1ccc(-c2nnn(CC(=O)NCc3ccco3)n2)cc1`, the IC50 is > 111 µM (not active) in [3], > 0.608 µM (active) in experiment [4], 27.2 µM (active) in experiment [5] and 11.8 µM (active) in experiment [6].
Turning to `N#Cc1cc(NC(=O)c2ccc(Cl)cc2)ccc1Sc1ccccc1`, the EC50 in experiment [7] is 3.25 µM (active); in experiment [8] it was 98.8 µM (active).
Consider `O=C(O)C1C2CC=CC2c2cc(Oc3ccccc3)cc3c2N1CC1CC=CC31` (stereo unspecified), for which the EC50 in [9] was 4.13 µM (active).
Regarding `O=C(O)CN1C(=O)/C(=C\c2cc([N+](=O)[O-])ccc2OCc2ccccc2Cl)SC1=S`, the IC50 is > 109 µM (not active) in experiment [10], > 109 µM (not active) in experiment [11] and 31.1 µM (active) in experiment [12]. Also, the AC50 in [13] is 12.9 µM (active).
Consider `CCn1c(C)cc(/C=C2/SC(=S)N(CC(=O)O)C2=O)c1C`, for which the IC50 in experiment [14] is 28.6 µM (active); in [16] it was 32.9 µM (active); in experiment [17], > 100 µM (inactive); in experiment [19], 75.5 µM (active). The concentration for a half-maximal effect (EC50) in [15] is > 100 µM (active). In addition, the AC50 in [18] was 0.776 µM (active).
On to `S=C(NC1CCCCC1)N1CCOCCOCCN(C(=S)NC2CCCCC2)CCOCC1`, for which the figures for the 50% effective concentration (EC50) in [20] and in [21] were > 29.9 µM (not active) and 20.4 µM (not active), respectively.
